This is an account of results in patent US7601494B2, “Method of screening candidate compounds for susceptibility to biliary excretion” (The University of North Carolina at Chapel Hill, priority 1999, dated 2009).

Series [1] has as its system short-term cultured hepatocytes. In words: Cumulative uptake in 3-hr (short-term) cultured hepatocyte monolayers, standard vs Ca2+-free buffer. The class given is in vitro ADME, rat. Particulars: 3-hr cultured hepatocytes. Here is the method:
Hepatocytes were isolated with a two-step perfusion method. Briefly, rats were anesthetized with ketamine and xylazine (60 and 12mg/kg i.p., respectively) prior to portal vein cannulation. The liver was perfused in situ with oxygenated Ca^2+-free Krebs-Henseleit bicarbonate buffer containing collagenase type 1 (0.5 mg/ml) for 10 min. The hepatic capsule was removed with forceps. The hepatocytes were released by shaking the liver gently in 100 ml DMEM.
The released cells were filtered through a sterile nylon mesh (70-μm). The hepatocyte suspensions were centrifuged at 50 xg for 3 min. The cell pellet was resuspended in 25 ml DMEM and an equal volume of 90% isotonic polyvinylpyrrolidone-coated silica colloid centrifugation medium (pH 7.4) sold under the registered trademark PERCOLL® by Pharmacia, Inc. of Piscataway, N.J. The resulting cell suspension was centrifuged at about 70 to about 150 xg for 5 min. The pellet was resuspended in 50 ml DMEM and the cell suspensions were combined into one tube followed by centrifugation at 50 xg for 3 min. Hepatocyte viability was determined by trypan blue exclusion. Only those hepatocyte preparations with viability greater than 90% were utilized for further studies.
Hepatocyte suspensions were prepared with DMEM containing 5% fetal calf serum, 1 μM dexamethasone and 4 mg/L insulin. Hepatocyte suspensions were added to the precoated dishes at a density of about 2-3×10^6 cells/60-mm dish. Approximately 1 hr after plating the cells, the medium was aspirated and 3-ml fresh DMEM was added. For transport studies, hepatocytes that had been seeded for 3-5 hr without collagen overlay were defined as 3-hr or short-term cultured hepatocytes.
(§1) Hepatocytes cultured in a collagen-sandwich configuration were incubated in 3 ml standard buffer or Ca^2+-free buffer at 37° C. for 10 min. After removing the incubation buffer, uptake was initiated by addition of 3 ml standard buffer containing substrate to each dish. After incubation for designated times, cumulative uptake was terminated by aspirating the incubation solution and rinsing 4 times with 3 ml ice-cold standard buffer to remove extracellular substrate. After washing, 2 ml of 1% Triton X-100 solution was added to culture dishes, and the cells were lysed by shaking the dish on a shaker for 20 min at room temperature. An aliquot (1 ml) of lysate was analyzed by liquid scintillation spectrometry. Bio-Rad DC Protein Assay Kit (Bio-Rad Laboratories, Hercules, Calif.) was used to determine the protein concentration in the culture extracts using bovine serum albumin as standard. […] All values for substrate uptake into cell monolayers were corrected for nonspecific binding to the collagen by subtracting the substrate uptake determined in the appropriate control dishes in the absence of cells as described previously.
(§2) Uptake data were normalized to the protein content and expressed as mean±SD from 3-4 separate preparations of hepatocytes. Statistical differences between mean values for the 10-min cumulative substrate uptake in the presence and absence of Ca^2+ were determined by the use of the well-known Student's t-test. A P value of <0.05 was considered significant.

The subject of series [2] is sandwich-cultured hepatocytes. In words: Cumulative uptake, Biliary Excretion Index and in vitro biliary clearance in 96-hr sandwich-cultured hepatocytes. It counts as in vitro ADME, rat. Here is the method:
To prepare sandwich-cultured hepatocytes, neutralized collagen solution (0.1 ml, about 1.5 to about 3.0 mg/ml, pH 7.4) was added to the monolayers 24 hr after the cells were seeded. […] Medium was changed on a daily basis until the fourth day after the cells were seeded. These hepatocytes were referred to as 96-hr or long-term cultured hepatocytes.
as §1, §2
Biliary excretion of substrates in the monolayers was quantitatively assessed by the Biliary Excretion Index based on Equation 3:
[formula] where Uptakestandard and Uptake Ca^2+-free represent the cumulative uptake of substrate over a 10-min interval in the hepatocyte monolayers pre-incubated in standard buffer and in Ca^2+-free buffer, respectively.
Biliary clearance in the sandwich-cultured hepatocytes, ClB(culture) (ml/min/kg per body weight), was calculated according to Equation 4:
[formula] where Timeincubation was 10 min and Concentrationmedium represented the initial substrate concentration in the incubation medium. In some embodiments, a biliary clearance value can be calculated as the ratio of the mass in the bile canaliculi and the area under the curve (AUC) in culture medium, wherein the AUC represents the integral of candidate compound (e.g. xenobiotic concentration) in the medium from time 0 to time T (time can be measure in any desired units, and is usually measured in minutes). Indeed, the term AUC can refer to the following equation: […]

The nature of series [3]: Biliary excretion in bile duct cannulated rats after administration of [14C]264W94 / [14C]2169W94. It counts as in vivo, rat. Here is the method:
Male Wistar rats (250-280 g) from Charles River Laboratory (Raleigh, N.C.) were used as liver donors. Rats were housed individually in stainless-steel cages in a constant alternating 12-hr light and dark cycle at least 1 week before the study was performed, and were fed ad libitum until use. Bile duct cannulated rats (200-250 g) were obtained from Charles River (Raleigh, N.C.). The Institutional Animal Care and Use Committee at the University of North Carolina at Chapel Hill, Chapel Hill, N.C., approved all procedures.
[^14C]264W94 was formulated as a solution in a mixture of sterile water/polypropylene glycol 400/ethanol (2:1:1 v/v/v) at a concentration of 0.125 mg/mL. Following collection of pre-dose bile, [^14C]264W94 solution was administrated by caudal vein injection (0.1 mg/kg). For the 2169W94 studies, [^14C]2169W94 was prepared as a suspension at a concentration of 0.1 mg/mL in 0.5% (w/v) methylcellulose in water. Following collection of pre-dose bile, [^14C]2169W94 suspension was administrated by gavage (1.0 mg/kg). All rats were placed into individual plastic metabolism cages that allowed the rats unrestrained movement. Bile was collected into polypropylene containers surrounded by ice. For the 264W94 studies, the bile container was changed at 8 and 24 hours after the dose. […] Bile samples were stored at −20° C. until analysis.
Aliquots of cell lysate or bile samples containing 264W94 or 2169W94 were mixed with 2-fold volumes of ice-chilled acetonitrile, and centrifuged to remove precipitated proteins. The supernatant was evaporated under nitrogen at room temperature, and reconstituted in 100 μL of a 70/30 mixture of 50 mM ammonium acetate/acetonitrile/trifluoroacetic acid (95:5:0.1 v:v:v) and acetonitrile. […]
Radiocarbon that eluted from the HPLC was quantified with an on-line radioactivity detector (RADIOMATIC FLO-ONE/BETA™ Radio-Chromatography Detector Series 500 TR Series, Packard Instrument Co.). […] The concentration of the three components was determined by normalizing the eluted radioactivity in each peak to the total injected radioactivity.

Series [4] has as its system sandwich-cultured hepatocytes. In words: HPLC analysis of 10-min cell lysate of 96-hr sandwich-cultured hepatocytes. It counts as in vitro ADME, rat. As to conditions: 96-hr hepatocytes incubated with 3 μM [14C]264W94, 10 min. Here is the method: Aliquots of cell lysate or bile samples containing 264W94 or 2169W94 were mixed with 2-fold volumes of ice-chilled acetonitrile, and centrifuged to remove precipitated proteins. The supernatant was evaporated under nitrogen at room temperature, and reconstituted in 100 μL of a 70/30 mixture of 50 mM ammonium acetate/acetonitrile/trifluoroacetic acid (95:5:0.1 v:v:v) and acetonitrile. The sample extracts were injected onto a WATERS™ […]™ C18 column (3.9×150 mm) and eluted by a 85/15 mixture of 50 mM ammonium acetate (pH 4.0) and acetonitrile; the percentage of acetonitrile was increased by a WATERS™ 600E System Controller to 55% over a period of 20 minutes, and then to 100% during the next 10 minutes.
Radiocarbon that eluted from the HPLC was quantified with an on-line radioactivity detector (RADIOMATIC FLO-ONE/BETA™ Radio-Chromatography Detector Series 500 TR Series, Packard Instrument Co.). The peaks of 264W94, 2169W94, and 2169W94 glucuronide were identified by comparing with purified standard compound. Under these conditions, baseline separation of these three components was achieved. The concentration of the three components was determined by normalizing the eluted radioactivity in each peak to the total injected radioactivity. […]

In series [5] the test system is hepatic cytochrome p450 isozymes. Particulars: Silver et al. 1996; cited from earlier work.

As to `CCCC[C@]1(CC)CS(=O)(=O)c2cc(OC)c(OC)cc2[C@@H](c2ccccc2)N1` [264W94, (3R, 5R)-3-butyl-3-ethyl-2,3,4,5-tetrahydro-7,8-dimethoxy-5-phenyl-1,4-benzothiazepine-1,1-dioxide], the “cumulative uptake in standard buffer compared to Ca2+-free buffer” value was “similar” in series [1] and “not significantly different” in series [2] (96-hr cultured hepatocytes). Further, the “biliary excretion in long-term sandwich-cultured hepatocytes (in words)” value in series [2] (96-hr sandwich-cultured hepatocytes) is reported as “lack of biliary excretion”. Further, in series [3] (in vivo), the “biliary excretion in rats (in words)” value is “negligible biliary excretion”. In addition, the “detection in bile in 24 hr” value in series [3] (rats, i.v. [14C]264W94 0.24 μmol/kg) was “neither 264W94 nor 2169W94 was detected”. Also, the “total administered radioactivity recovered in bile” value in series [3] (rats, oral administration 2.4 μmol/kg, in 8 hr, n=2) was 66.4%. Also, the “share of total radioactivity in cell lysate” value in series [4] turned out to be 73.0%. Moreover, in series [5], the “cytochrome p450 isozyme primarily involved in the metabolism” value is “CYP3A4”.
